Assay results as given in patent US8329739B2, “Phenylimidazole compounds” (Otsuka Pharmaceutical Factory, Inc., priority 2009, dated 2012).

How the values were obtained:
LPL (lipoprotein lipase) = molecular target: T1, LPL (lipoprotein lipase) (Mus musculus, UniProt P11152); assay: Confirmation test of LPL activation effect in mouse skeletal muscle cells (C2C12 cells); format: cell-based; details: 8 hours exposure, vs control group
T1 construct: endogenous in cells; host or cells: C2C12 cells, differentiated
T1 sequence (P11152 28-474): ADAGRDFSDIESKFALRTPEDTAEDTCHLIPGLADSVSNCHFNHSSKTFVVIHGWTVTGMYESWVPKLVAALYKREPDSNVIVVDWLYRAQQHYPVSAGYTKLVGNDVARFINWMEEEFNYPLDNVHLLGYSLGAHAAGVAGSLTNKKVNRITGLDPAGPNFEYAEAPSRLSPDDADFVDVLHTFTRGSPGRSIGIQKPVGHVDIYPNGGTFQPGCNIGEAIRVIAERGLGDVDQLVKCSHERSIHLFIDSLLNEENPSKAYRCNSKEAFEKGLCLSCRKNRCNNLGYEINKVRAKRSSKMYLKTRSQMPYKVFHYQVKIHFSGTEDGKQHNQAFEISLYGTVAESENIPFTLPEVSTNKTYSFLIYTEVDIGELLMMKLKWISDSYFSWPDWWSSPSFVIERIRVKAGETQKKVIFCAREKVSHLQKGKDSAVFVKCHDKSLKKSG
Protocol: Human skeletal muscle cells (human skeletal muscle myoblasts) or mouse skeletal muscle cells (C2C12 cells) that were seeded onto plates, cultured, and differentiated were exposed to a 0.3% dimethyl sulfoxide-containing culture medium in which the compound of the present invention was dissolved (concentration: 10 μM or 30 μM). The medium was removed 8 hours after exposure, 10 mM of Tris-HCl buffer (150 mM NaCl, 10 μ/mL; containing heparin sodium) was added to the cells, and the cells were incubated at 37° C. in the presence of 5% CO2 for 10 minutes. LPL activity in the supernatant was measured using an LPL activity assay kit (made by Roar Biomedical Inc.). LPL activity was evaluated based on the increase in fluorescence intensity 10 to 70 minutes after mixing the supernatant with the LPL substrate. The mean value of the increase in fluorescence intensity of the cells exposed to a 0.3% dimethyl sulfoxide-containing culture medium […] was used as mean value of the control group. Note that the compounds of Examples 18, 19, 32, 45 and 57 were tested using human skeletal muscle cells, and other compounds were tested using mouse skeletal muscle cells. The rate of increase (%) was calculated from the measured values of LPL activity in the control group and the experimental group, according to the following formula. Rate of increase in LPL activity (%)=[(mean value of the experimental group)−(mean value of the control group)]/(mean value of the control group)×100

COc1cc(OCc2ccc(Cl)cc2)ccc1-c1c[nH]c(-c2ccccc2)n1.Cl [Example 10]
Rate of increase in LPL activity (LPL (lipoprotein lipase); amount of addition 10 μM): 46%
Rate of increase in LPL activity (LPL (lipoprotein lipase); amount of addition 30 μM): 275%
melting point: 244 to 246 °C

COc1cc(OCc2ccc(Br)cc2F)ccc1-c1c[nH]c(-c2ccccc2)n1.Cl [Example 11]
Rate of increase in LPL activity (LPL (lipoprotein lipase); amount of addition 10 μM): 96%
Rate of increase in LPL activity (LPL (lipoprotein lipase); amount of addition 30 μM): 231%
melting point: 239 to 240 °C

COc1cc(OCc2ccccc2)ccc1-c1c[nH]c(-c2ccc(C(F)(F)F)cc2)n1 [Example 13]
Rate of increase in LPL activity (LPL (lipoprotein lipase); amount of addition 10 μM): 46%
Rate of increase in LPL activity (LPL (lipoprotein lipase); amount of addition 30 μM): 234%
melting point: 231 to 232 °C

COc1cc(-c2c[nH]c(-c3cc(Cl)cc(Cl)c3)n2)ccc1OCc1ccccc1 [Example 15]
Rate of increase in LPL activity (LPL (lipoprotein lipase); amount of addition 10 μM): 79%
Rate of increase in LPL activity (LPL (lipoprotein lipase); amount of addition 30 μM): 97%
melting point: 250 to 251 °C

COc1cc(-c2c[nH]c(-c3ccc(C)c(F)c3)n2)ccc1OCc1ccccc1.Cl [Example 16]
Rate of increase in LPL activity (LPL (lipoprotein lipase); amount of addition 10 μM): 54%
Rate of increase in LPL activity (LPL (lipoprotein lipase); amount of addition 30 μM): 119%
melting point: 236 to 237 °C

COc1cc(OCc2ccc(C#N)cc2)ccc1-c1c[nH]c(-c2ccc(C(F)(F)F)cc2)n1 [Example 17]
Rate of increase in LPL activity (LPL (lipoprotein lipase); amount of addition 10 μM): 81%
Rate of increase in LPL activity (LPL (lipoprotein lipase); amount of addition 30 μM): 143%
melting point: 182 to 184 °C

COc1cc(OCc2ccccc2)ccc1-c1c[nH]c(-c2ccsc2)n1 [Example 24]
Rate of increase in LPL activity (LPL (lipoprotein lipase); amount of addition 10 μM): 59%
Rate of increase in LPL activity (LPL (lipoprotein lipase); amount of addition 30 μM): 77%
melting point: 188 to 192 °C

COc1cc(-c2c[nH]c(-c3ccoc3)n2)ccc1OCc1ccccc1 [Example 26]
Rate of increase in LPL activity (LPL (lipoprotein lipase); amount of addition 10 μM): 31%
Rate of increase in LPL activity (LPL (lipoprotein lipase); amount of addition 30 μM): 51%
melting point: 177 to 179 °C

COc1cc(-c2c[nH]c(-c3ccc(C(C)(C)C)cc3)n2)ccc1OCc1ccccc1 [Example 28]
Rate of increase in LPL activity (LPL (lipoprotein lipase); amount of addition 10 μM): 30%
Rate of increase in LPL activity (LPL (lipoprotein lipase); amount of addition 30 μM): 53%
melting point: 138 to 141 °C

COc1cc(OCc2ccccc2)ccc1-c1c[nH]c(C(C)C)n1 [Example 30]
Rate of increase in LPL activity (LPL (lipoprotein lipase); amount of addition 10 μM): 11%
Rate of increase in LPL activity (LPL (lipoprotein lipase); amount of addition 30 μM): 47%
melting point: 154 to 156 °C

COc1cc(-c2c[nH]c(-c3cccs3)n2)ccc1OCc1ccc(Cl)cc1 [Example 31]
Rate of increase in LPL activity (LPL (lipoprotein lipase); amount of addition 10 μM): 10%
Rate of increase in LPL activity (LPL (lipoprotein lipase); amount of addition 30 μM): 38%
melting point: 197 to 200 °C

COc1cc(-c2c[nH]c(-c3cc(Cl)cc(Cl)c3)n2)ccc1OCc1ccc(Cl)cc1 [Example 33]
Rate of increase in LPL activity (LPL (lipoprotein lipase); amount of addition 10 μM): 60%
Rate of increase in LPL activity (LPL (lipoprotein lipase); amount of addition 30 μM): 84%
melting point: 142 to 145 °C

COc1cc(-c2c[nH]c(-c3ccc(F)cc3)n2)ccc1OCc1ccccc1 [Example 36]
Rate of increase in LPL activity (LPL (lipoprotein lipase); amount of addition 10 μM): 6%
Rate of increase in LPL activity (LPL (lipoprotein lipase); amount of addition 30 μM): 113%
melting point: 214 to 216 °C

COC(=O)c1ccc(-c2nc(-c3ccc(OCc4ccccc4)c(OC)c3)c[nH]2)cc1.Cl [Example 38]
Rate of increase in LPL activity (LPL (lipoprotein lipase); amount of addition 10 μM): 35%
Rate of increase in LPL activity (LPL (lipoprotein lipase); amount of addition 30 μM): 100%
melting point: 222 to 227 °C

COc1cc(OCc2ccccc2)ccc1-c1c[nH]c(-c2ccc(F)cc2)n1.Cl [Example 42]
Rate of increase in LPL activity (LPL (lipoprotein lipase); amount of addition 10 μM): 47%
Rate of increase in LPL activity (LPL (lipoprotein lipase); amount of addition 30 μM): 131%
melting point: 217 to 220 °C

COc1cc(OCc2ccc(Cl)cc2)ccc1-c1c[nH]c(-c2ccc(F)cc2)n1 [Example 43]
Rate of increase in LPL activity (LPL (lipoprotein lipase); amount of addition 10 μM): 64%
Rate of increase in LPL activity (LPL (lipoprotein lipase); amount of addition 30 μM): 157%
melting point: 174 to 176 °C

COc1cc(-c2c[nH]c(-c3cccc(F)c3)n2)ccc1OCc1ccccc1.Cl [Example 46]
Rate of increase in LPL activity (LPL (lipoprotein lipase); amount of addition 10 μM): 49%
Rate of increase in LPL activity (LPL (lipoprotein lipase); amount of addition 30 μM): 88%
melting point: 212 to 215 °C

COc1cc(-c2c[nH]c(-c3ccc(F)c(F)c3)n2)ccc1OCc1ccccc1.Cl [Example 47]
Rate of increase in LPL activity (LPL (lipoprotein lipase); amount of addition 10 μM): 38%
Rate of increase in LPL activity (LPL (lipoprotein lipase); amount of addition 30 μM): 120%
melting point: 226 to 227 °C

COc1cc(-c2c[nH]c(-c3ccc(F)cc3)n2)ccc1OCc1ccc(Cl)cc1.Cl [Example 48]
Rate of increase in LPL activity (LPL (lipoprotein lipase); amount of addition 10 μM): 18%
Rate of increase in LPL activity (LPL (lipoprotein lipase); amount of addition 30 μM): 96%
melting point: 243 to 245 °C

COc1cc(-c2nc(-c3ccc(F)cc3)[nH]c2C)ccc1OCc1ccccc1 [Example 49]
Rate of increase in LPL activity (LPL (lipoprotein lipase); amount of addition 10 μM): 47%
Rate of increase in LPL activity (LPL (lipoprotein lipase); amount of addition 30 μM): 147%
melting point: 214 to 218 °C

COc1cc(-c2c[nH]c(-c3ccc(F)cc3)n2)ccc1OCc1ccccc1C#N [Example 50]
Rate of increase in LPL activity (LPL (lipoprotein lipase); amount of addition 10 μM): 20%
Rate of increase in LPL activity (LPL (lipoprotein lipase); amount of addition 30 μM): 70%
melting point: 204 to 206 °C

COc1cc(-c2c[nH]c(-c3cccc(C(F)(F)F)c3)n2)ccc1OCc1ccc(Br)cc1F [Example 51]
Rate of increase in LPL activity (LPL (lipoprotein lipase); amount of addition 10 μM): 16%
Rate of increase in LPL activity (LPL (lipoprotein lipase); amount of addition 30 μM): 115%
melting point: 173 to 174 °C

COc1cc(OCc2ccccc2)ccc1-c1c[nH]c(-c2cccc(F)c2)n1.Cl [Example 54]
Rate of increase in LPL activity (LPL (lipoprotein lipase); amount of addition 10 μM): 18%
Rate of increase in LPL activity (LPL (lipoprotein lipase); amount of addition 30 μM): 87%
melting point: 231 to 235 °C

COc1cc(-c2c[nH]c(-c3ccc(C(F)(F)F)cc3)n2)ccc1OCc1ccc(C#N)cc1 [Example 55]
Rate of increase in LPL activity (LPL (lipoprotein lipase); amount of addition 10 μM): 49%
Rate of increase in LPL activity (LPL (lipoprotein lipase); amount of addition 30 μM): 94%
melting point: 231 to 233 °C

COc1cc(-c2c[nH]c(-c3ccc(F)cc3)n2)ccc1OCc1ccc(C#N)cc1 [Example 56]
Rate of increase in LPL activity (LPL (lipoprotein lipase); amount of addition 10 μM): 38%
Rate of increase in LPL activity (LPL (lipoprotein lipase); amount of addition 30 μM): 62%
melting point: 224 to 226 °C

COc1cc(OCc2ccc(Br)cc2F)ccc1-c1c[nH]c(-c2cccc(C(F)(F)F)c2)n1.Cl [Example 58]
Rate of increase in LPL activity (LPL (lipoprotein lipase); amount of addition 10 μM): 45%
Rate of increase in LPL activity (LPL (lipoprotein lipase); amount of addition 30 μM): 150%
melting point: > 250 °C

COc1cc(-c2c[nH]c(-c3cccc(F)c3)n2)ccc1OCc1ccc(C#N)cc1 [Example 59]
Rate of increase in LPL activity (LPL (lipoprotein lipase); amount of addition 10 μM): 22%
Rate of increase in LPL activity (LPL (lipoprotein lipase); amount of addition 30 μM): 73%
melting point: 205 to 209 °C

COc1cc(-c2c[nH]c(-c3ccc(F)cc3)n2)ccc1OCc1cccc(C#N)c1.Cl [Example 61]
Rate of increase in LPL activity (LPL (lipoprotein lipase); amount of addition 10 μM): 53%
Rate of increase in LPL activity (LPL (lipoprotein lipase); amount of addition 30 μM): 92%
melting point: 242 to 244 °C

COc1cc(OCc2ccc(C#N)cc2)ccc1-c1c[nH]c(-c2ccsc2)n1 [Example 65]
Rate of increase in LPL activity (LPL (lipoprotein lipase); amount of addition 10 μM): 24%
Rate of increase in LPL activity (LPL (lipoprotein lipase); amount of addition 30 μM): 46%
melting point: 183 to 186 °C

COc1cc(-c2c[nH]c(-c3ccsc3)n2)ccc1OCc1ccc(C#N)cc1 [Example 66]
Rate of increase in LPL activity (LPL (lipoprotein lipase); amount of addition 10 μM): 24%
Rate of increase in LPL activity (LPL (lipoprotein lipase); amount of addition 30 μM): 32%
melting point: 176 to 180 °C

COc1cc(OCc2ccc(Br)cc2F)ccc1-c1c[nH]c(-c2ccsc2)n1.Cl [Example 68]
Rate of increase in LPL activity (LPL (lipoprotein lipase); amount of addition 10 μM): 10%
Rate of increase in LPL activity (LPL (lipoprotein lipase); amount of addition 30 μM): 289%
melting point: 247 to 249 °C

COc1cc(-c2c[nH]c(-c3ccsc3)n2)ccc1OCc1ccc(Br)cc1F.Cl [Example 69]
Rate of increase in LPL activity (LPL (lipoprotein lipase); amount of addition 10 μM): 52%
Rate of increase in LPL activity (LPL (lipoprotein lipase); amount of addition 30 μM): 142%
melting point: 251 to 252 °C

COc1cc(-c2c[nH]c(-c3ccsc3)n2)ccc1OCc1ccc(Cl)cc1 [Example 71]
Rate of increase in LPL activity (LPL (lipoprotein lipase); amount of addition 10 μM): 42%
Rate of increase in LPL activity (LPL (lipoprotein lipase); amount of addition 30 μM): 114%
melting point: 197 to 201 °C
